According to US20200109126A1 (priority 2017, published 2020):
Entries after “also recorded” stand apart in the source; their conditions may differ.

Key:
[1] = biological target: T1, κOR (Homo sapiens, UniProt P41145); assay: Radioligand binding at κOR (PDSP); conditions: Ki (nM) κOR
T1 construct: NIMH Psychoactive Drug Screening Program (PDSP)

[2] = biological target: T2, δOR (Homo sapiens, UniProt P41143); assay: Radioligand binding at δOR (PDSP)
T2 construct: NIMH Psychoactive Drug Screening Program (PDSP)

[3] = biological target: T3, μOR (Homo sapiens, UniProt P35372); assay: cell-based; type: cell-based
[4] = biological target: T2, δOR; assay: Gi/o Glosensor assay at δOR; type: cell-based; conditions: ND = not detectable
[5] = biological target: T1, κOR; assay: Gi/o Glosensor assay at κOR; type: cell-based
[6] = biological target: T4, nociceptin receptor (Homo sapiens, UniProt P41146); assay: Gi/o Glosensor assay at nociceptin receptor; type: cell-based
T4 construct: NIMH Psychoactive Drug Screening Program (PDSP)

[7] = biological target: T3, μOR; assay: β-arrestin2 recruitment, PathHunter assay; type: cell-based
[8] = biological target: T3, μOR; assay: β-arrestin recruitment at μOR without GRK2; type: cell-based
[9] = biological target: T3, μOR; assay: β-arrestin recruitment at μOR with GRK2 co-expression; type: cell-based
[10] = biological target: hERG ion channel (Homo sapiens, UniProt Q12809); assay: Inhibition of hERG channel; type: biochemical
[11] = tested on: 320 non-olfactory GPCRs; assay: PRESTO-Tango GPCRome β-arrestin recruitment screen for off-target agonism; type: cell-based; conditions: 10 μM, hits re-tested in full dose-response
Source text: Potential positive receptor hits were defined as those that increase the relative luminescence value by two fold. […] A number of false positive hits were discounted by this approach.

[12] = biological target: T3, μOR; assay: Receptor internalization (PathHunter GPCR internalization assay); type: cell-based; conditions: maximal concentration
[13] = tested on: Oprm1−/− and wild-type C57Bl/6J mice; assay: Hot plate in μOR knockout mice and subcategorization of affective/reflexive pain; type: in vivo, mouse
Experimental: Analgesia in μOR knockout mice and subcategorization of affective/reflexive pain: Oprm1−/− and wild-type C57Bl/6J mice (male; 8-11 weeks) were acclimated to the testing environment and thermal-plate equipment for three non-consecutive days between 11 A.M. and 1 P.M. prior to any pharmacological studies. Acclimation was achieved by individually confining mice within an enclosed semi-transparent red plastic cylinder (10 cm D×15 cm H) on a raised metal-mesh rack (61 cm H) for 30 minutes, and then exposing each mouse to the thermal-plate equipment (non-heated; floor dimensions, 16.5×16.5 cm; Bioseb), while confined within a clear plastic chamber (16 L×16 W×30H cm). Acclimation exposure to the thermal plate lasted for 30 seconds, and exposure was repeated after 30 minutes to mimic the test day conditions. […] The same experimenter ([…] ) was present throughout the entire duration of habituation and testing to exclude possible olfaction-induced alterations in sensory thresholds.
Cutaneous application of a noxious stimulus, or time spent on a hot plate apparatus can broadly elicit several distinct behavioral responses: 1. Withdrawal reflexes: rapid reflexive retraction or digit splaying of the paw, 2. […] Paw withdrawal reflexes are classically measured in studies of hypersensitivity, and involve simple spinal cord and brainstem circuits. […]

[14] = Pharmacokinetics of PZM21 (serum and brain); type: in vivo, mouse; conditions: 20 mg/kg subcutaneous
Experimental: Studies were performed by the Preclinical Therapeutics Core and the Drug Studies Unit at the University of California San Francisco.

[15] = Metabolism by mouse liver microsomes; type: in vitro ADME; conditions: over one hour
Experimental: Metabolism experiments were performed as described previously. In brief, pooled microsomes from male mouse liver (CD-1) were purchased (Sigma Aldrich) and stored at −75° C. until required. NADPH was purchased (Carl Roth) and stored at −8° C. The incubation reactions were carried out in polyethylene caps (Eppendorf, 1.5 mL) at 37° C. […] The final incubation volume was 0.5 mL. Microsomal reactions were initiated by addition of 50 μL of enzyme cofactor solution NADPH (final concentration of 1 mM). At 0, 15, 30 and 60 min the enzymatic reactions were terminated by addition of 500 μL of ice-cold acetonitrile (containing 8 μM internal standard), and precipitated protein was removed by centrifugation (15,000 rcf for 3 min). The supernatant was analyzed by HPLC/MS (binary solvent system, eluent acetonitrile in 0.1% aqueous formic acid, 10-40% acetonitrile in 8 min, 40-95% acetonitrile in 1 min, 95% acetonitrile for 1 min, flow rate of 0.3 mL/min). The experiments were repeated in three independent experiments. […] Substrate remaining and metabolite formation was calculated as a mean value+SEM of three independent experiments by comparing AUC of metabolites and substrate after predetermined incubation time to AUC of substrate at time 0, estimating a similar ionization rate, corrected by a factor calculated from the AUC of internal standard at each time point.

[16] = tested on: C57BL/6J mice; assay: Formalin injection assay; conditions: PZM21 40 mg/kg
Experimental: Analgesia to formalin injection was carried out as described previously^66. Mice were first habituated for 20 minutes to the testing environment which included a home cage without bedding, food, and water. […] This was followed by injection of 20 μL of 1% formalin in 0.9% saline under the skin of the dorsal surface of the right hindpaw. Animals were returned to their home cage and behavioral responses were recorded for one hour. Nociception was estimated by measuring the cumulative time spent by animals licking the formalin-injected paw. As opioids classically display two phases of analgesic action, nociceptive behavior was measured during both the early phase (0 to 5 minutes) and the late phase (20 to 30 minutes).

[17] = tested on: C57BL/6J mice; assay: Cataleptic effect (bar test); conditions: PZM21 20 mg/kg
Experimental: Drug induced catalepsy was measured in mice using the bar test, which includes a horizontally placed 3 mm diameter wooden bar fixed 4 cm above the floor. […] To measure catalepsy, both forepaws were gently placed on the bar and the length of time during which each mouse remained in the initial position was measured. The effect was measured at 15, 30 and 90 minutes after drug injection. Maximum cut-off time for each challenge was 90 seconds.

[18] = tested on: C57BL/6J mice; assay: Accumulated fecal boli quantification (constipation); conditions: PZM21 20 mg/kg, morphine 10 mg/kg
[19] = biological target: T3, μOR; assay: biochemical; type: binding; design: expressed in transfected cells; host or cells: HEK293 membranes (Ki); Sf9 insect cell membranes (single-point screen); PDSP for analogs
Experimental: For a primary screen of selected molecules, binding to OR was assessed by measuring competition against the radioligand ^3H-diprenorphine (^3H-DPN). […] The reaction contained 40 fmol of μOR and was incubated in a buffer of 20 mM HEPES pH 7.5, 100 mM sodium chloride, and 0.1% bovine serum albumin for 1 hour at 25° C. To separate free from bound radioligand, reactions were rapidly filtered over Whatman GF/B filters with the aid of a Brandel harvester and ^3H-DPN counts were measured by liquid scintillation.

T3 sequence (P35372 whole entry): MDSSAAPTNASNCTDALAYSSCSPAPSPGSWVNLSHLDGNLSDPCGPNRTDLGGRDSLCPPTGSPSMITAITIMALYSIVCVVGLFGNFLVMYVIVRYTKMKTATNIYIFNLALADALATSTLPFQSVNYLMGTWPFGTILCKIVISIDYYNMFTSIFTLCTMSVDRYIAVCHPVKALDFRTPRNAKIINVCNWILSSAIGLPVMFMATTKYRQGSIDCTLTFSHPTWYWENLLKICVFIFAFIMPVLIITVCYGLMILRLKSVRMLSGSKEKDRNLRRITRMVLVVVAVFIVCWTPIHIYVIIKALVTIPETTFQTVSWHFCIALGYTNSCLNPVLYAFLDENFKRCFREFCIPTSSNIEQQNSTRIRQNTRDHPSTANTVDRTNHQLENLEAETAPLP
T1 sequence (P41145 whole entry): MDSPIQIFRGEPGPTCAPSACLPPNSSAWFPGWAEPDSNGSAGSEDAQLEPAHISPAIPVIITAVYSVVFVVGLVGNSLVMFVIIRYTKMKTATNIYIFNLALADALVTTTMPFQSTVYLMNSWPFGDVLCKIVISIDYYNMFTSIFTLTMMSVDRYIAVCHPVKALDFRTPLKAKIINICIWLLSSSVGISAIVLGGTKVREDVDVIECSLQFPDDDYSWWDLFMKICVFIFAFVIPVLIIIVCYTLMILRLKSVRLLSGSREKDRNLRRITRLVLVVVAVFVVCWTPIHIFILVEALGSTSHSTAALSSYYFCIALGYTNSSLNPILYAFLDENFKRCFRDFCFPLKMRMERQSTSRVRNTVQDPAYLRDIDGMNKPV
T2 sequence (P41143 whole entry): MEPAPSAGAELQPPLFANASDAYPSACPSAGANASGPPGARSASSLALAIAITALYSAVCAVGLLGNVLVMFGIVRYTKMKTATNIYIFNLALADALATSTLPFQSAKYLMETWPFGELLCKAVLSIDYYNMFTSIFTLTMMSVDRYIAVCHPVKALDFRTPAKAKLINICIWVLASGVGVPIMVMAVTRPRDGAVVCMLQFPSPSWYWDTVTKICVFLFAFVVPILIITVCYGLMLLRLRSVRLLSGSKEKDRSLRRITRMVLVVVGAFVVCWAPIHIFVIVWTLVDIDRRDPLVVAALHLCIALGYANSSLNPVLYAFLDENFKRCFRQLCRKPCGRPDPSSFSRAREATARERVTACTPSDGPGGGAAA
hERG ion channel, sequence (Q12809 whole entry): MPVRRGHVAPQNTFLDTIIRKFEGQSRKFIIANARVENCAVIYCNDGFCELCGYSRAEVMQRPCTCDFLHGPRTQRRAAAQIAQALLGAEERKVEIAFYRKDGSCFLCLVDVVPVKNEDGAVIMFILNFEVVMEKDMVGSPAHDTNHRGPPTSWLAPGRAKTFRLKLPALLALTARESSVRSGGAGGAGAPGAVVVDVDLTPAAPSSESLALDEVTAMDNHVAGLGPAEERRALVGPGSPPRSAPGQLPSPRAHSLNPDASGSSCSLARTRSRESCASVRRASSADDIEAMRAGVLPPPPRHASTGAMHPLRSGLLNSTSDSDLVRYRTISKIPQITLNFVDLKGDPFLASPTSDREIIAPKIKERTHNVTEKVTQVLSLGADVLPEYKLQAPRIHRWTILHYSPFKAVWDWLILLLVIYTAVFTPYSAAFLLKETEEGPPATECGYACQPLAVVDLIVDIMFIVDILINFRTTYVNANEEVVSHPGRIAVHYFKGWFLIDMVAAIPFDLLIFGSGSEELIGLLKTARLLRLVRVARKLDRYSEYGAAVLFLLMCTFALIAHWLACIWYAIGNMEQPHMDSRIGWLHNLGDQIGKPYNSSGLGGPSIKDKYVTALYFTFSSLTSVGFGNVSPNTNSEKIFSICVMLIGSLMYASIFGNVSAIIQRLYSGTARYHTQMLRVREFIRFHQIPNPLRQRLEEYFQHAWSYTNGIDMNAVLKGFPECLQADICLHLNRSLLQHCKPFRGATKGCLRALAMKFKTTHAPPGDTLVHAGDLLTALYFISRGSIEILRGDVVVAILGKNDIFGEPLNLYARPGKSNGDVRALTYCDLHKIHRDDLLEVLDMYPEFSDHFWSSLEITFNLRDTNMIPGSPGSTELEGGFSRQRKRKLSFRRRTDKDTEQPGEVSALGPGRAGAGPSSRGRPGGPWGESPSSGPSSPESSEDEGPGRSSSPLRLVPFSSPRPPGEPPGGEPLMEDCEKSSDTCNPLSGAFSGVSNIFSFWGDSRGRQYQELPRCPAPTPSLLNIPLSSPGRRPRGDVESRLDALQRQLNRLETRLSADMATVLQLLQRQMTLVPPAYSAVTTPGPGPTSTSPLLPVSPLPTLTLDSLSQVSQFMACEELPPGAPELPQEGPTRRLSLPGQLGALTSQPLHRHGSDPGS
T4 sequence (P41146 whole entry): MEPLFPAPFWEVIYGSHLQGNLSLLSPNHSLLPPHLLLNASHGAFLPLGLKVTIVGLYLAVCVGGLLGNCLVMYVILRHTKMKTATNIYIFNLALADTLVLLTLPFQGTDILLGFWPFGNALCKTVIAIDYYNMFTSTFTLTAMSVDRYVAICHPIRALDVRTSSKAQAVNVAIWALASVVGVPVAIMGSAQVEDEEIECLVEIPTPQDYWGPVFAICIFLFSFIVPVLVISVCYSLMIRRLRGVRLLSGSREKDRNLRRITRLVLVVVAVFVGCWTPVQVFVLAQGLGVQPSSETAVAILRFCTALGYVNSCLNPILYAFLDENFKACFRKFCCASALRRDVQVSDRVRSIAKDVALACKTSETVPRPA

## C[C@@H](Cc1ccsc1)NC(=O)NC[C@H](Cc1ccc(O)cc1)N(C)C [PZM21, 1-[(S)-2-(Dimethylamino)-3-(4-hydroxyphenyl)propyl]-3-((S)-1-(thiophen-3-yl)propan-2-yl)urea]
[1]
  Ki: 18 nM
[2]
  Ki: 506 nM
[3]
  Gi/o activation, μOR agonist activity (in words): robust μOR agonist activity
[4]
  EC50: 1900 nM
[5]
  KOR agonist activity (in words): no detectable
[5]; antagonist mode
  mode of action at KOR: antagonist
[6]
  nociceptin receptor agonist activity (in words): no detectable
[7]
  β-arrestin2 recruitment (in words): undetectable; also recorded: minimal recruitment of β-arrestin2; also recorded: no detectable
[8]
  Arrestin Emax % DAMGO: 15 % DAMGO
  β-arrestin2 recruitment in the absence of GRK2 (in words): no β-arrestin2 recruitment
[9]
  arrestin recruitment with over-expressed GRK2 (in words): weak arrestin recruitment efficacy compared to DAMGO and even to morphine
[9]; operational model, DAMGO as reference
  signaling bias: undistinguishable from TRV130
[10]
  IC50: 2 to 4 µM
[11]
  agonism against 316 other GPCRs: no potent activity was confirmed
[12]
  μOR internalization: minimal level of μOR internalization compared to DAMGO and morphine
[13]; hot plate 52.5° C., PZM21 20 mg/kg, 20 mg/kg
  affective versus reflexive component of pain: only modulates the affective component of pain; also recorded: solely confers analgesia to the affective component of pain
[13]; hot-plate assay
  analgesic response in μOR knockout mice: completely ablates the observed analgesic response
[14]
  blood brain barrier penetration: substantial fraction of PZM21 crosses the blood brain barrier
[15]
  metabolism by mouse liver microsomes: 8%
[16]
  activity in formalin injection nociception assay: active
[17]
  cataleptic behavior: does not induce cataleptic behavior
[18]
  constipation effect: reduced constipatory effects as compared to morphine; also recorded: substantially less than morphine
[19]
  optimization from initial docking hit compound 7: 1000 fold
[19]; Ki and EC50 of (S,S)-21 against compound 12
  improvement versus 12: 40 fold
